Structures can show the parent of a compound that is named as a salt.
What was measured:
U2OS ER-Minus cells = assay: IL-6 production in ER-Minus (parental) U2OS osteosarcoma cells; type: cell-based, human; settings: 24 h
human full-length ER-β = biological target: T1, human full-length ER-β (Homo sapiens, UniProt Q92731); assay: IL-6 production in U2OS osteosarcoma cells stably transfected with ER-β; type: cell-based
T1 construct: expression vectors for human full-length ER-α or ER-β; expressed in transfected cells

human full-length ER-α = biological target: T2, human full-length ER-α (Homo sapiens, UniProt P03372); assay: IL-6 production in U2OS osteosarcoma cells stably transfected with ER-α; type: cell-based
T2 construct: expression vectors for human full-length ER-α or ER-β; expressed in transfected cells
T2 sequence (P03372 1-595): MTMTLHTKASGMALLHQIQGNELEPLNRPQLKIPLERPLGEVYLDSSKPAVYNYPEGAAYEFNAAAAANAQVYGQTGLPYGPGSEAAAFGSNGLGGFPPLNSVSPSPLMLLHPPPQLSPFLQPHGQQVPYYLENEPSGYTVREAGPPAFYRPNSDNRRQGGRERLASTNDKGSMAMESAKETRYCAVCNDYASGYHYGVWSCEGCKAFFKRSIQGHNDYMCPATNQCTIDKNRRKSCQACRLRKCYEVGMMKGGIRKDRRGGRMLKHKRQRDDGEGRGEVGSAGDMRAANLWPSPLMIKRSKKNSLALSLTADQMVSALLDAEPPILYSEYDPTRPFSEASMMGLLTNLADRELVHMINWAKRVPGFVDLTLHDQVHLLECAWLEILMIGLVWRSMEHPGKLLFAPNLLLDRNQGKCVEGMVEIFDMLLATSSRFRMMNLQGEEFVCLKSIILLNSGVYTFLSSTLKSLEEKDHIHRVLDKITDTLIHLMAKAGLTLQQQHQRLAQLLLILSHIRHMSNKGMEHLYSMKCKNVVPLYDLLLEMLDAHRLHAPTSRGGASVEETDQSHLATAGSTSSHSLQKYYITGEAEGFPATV

[1] = IL-6 after 10 ng/ml IL-1β and 10 ng/ml TNF-α, 50% inhibition relative to DMSO control

T1 sequence (Q92731 whole entry): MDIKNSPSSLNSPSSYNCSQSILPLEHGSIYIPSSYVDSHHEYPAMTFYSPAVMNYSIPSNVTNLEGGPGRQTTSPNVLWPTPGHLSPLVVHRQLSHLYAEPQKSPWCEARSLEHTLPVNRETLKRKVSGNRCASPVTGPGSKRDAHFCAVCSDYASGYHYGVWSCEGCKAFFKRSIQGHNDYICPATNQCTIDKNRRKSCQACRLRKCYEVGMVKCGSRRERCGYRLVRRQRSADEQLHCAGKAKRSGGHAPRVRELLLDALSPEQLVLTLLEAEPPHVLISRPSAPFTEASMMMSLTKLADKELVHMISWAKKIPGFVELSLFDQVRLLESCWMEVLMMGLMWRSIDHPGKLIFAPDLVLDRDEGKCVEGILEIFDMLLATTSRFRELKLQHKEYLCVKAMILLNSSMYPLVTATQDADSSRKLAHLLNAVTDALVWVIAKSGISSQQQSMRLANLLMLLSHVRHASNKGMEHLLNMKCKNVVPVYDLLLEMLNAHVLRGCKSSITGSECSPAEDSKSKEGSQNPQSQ

| IC50 (human full-length ER-β) [µM] | IC50 (human full-length ER-α) [µM] | melting point [°C] | Molecule | IC50 (U2OS ER-Minus cells; [1]) [µM] | IC50 (U2OS ER-Minus cells; Homo sapiens, U2OS) [µM] |
| --- | --- | --- | --- | --- | --- |
| > 10 | 0.001 | – | Oc1ccc2c(c1)CCN(c1ccc(F)cc1)C2c1ccc(OCCN2CCCCC2)cc1 (stereo not shown) [Compound A, reference compound] | – | > 10 |
| 0.107 | > 1 | – | Oc1ccc2c(c1)CCN(c1ccccc1)C2Cc1ccc(Br)cc1 (stereo not shown) [Example 2, 1-(4-Bromobenzyl)-2-phenyl-1,2,3,4-tetrahydroisoquinolin-6-ol] | – | > 1 |
| 5 | 10 | – | Oc1ccc2c(c1)CCCN(c1ccc(F)cc1)C2Cc1ccc(OCCN2CCCCC2)cc1 (stereo not shown) [Example 8] | – | > 10 |
| – | – | 47 to 49 | CCN(CCOc1ccc(CC2c3ccc(O)cc3CCN2c2ccc(F)cc2)cc1)Cc1ccccc1 (stereo not shown) [Example 21, 1-{4-[(2-(N-Benzyl-N-ethyl)amino)ethoxy]benzyl}-2-(4-fluorophenyl)-1,2,3,4-tetrahydroisoquinolin-6-ol] | – | – |

The next lines start with the molecule.

| Molecule | IC50 (human full-length ER-β) [µM] | IC50 (human full-length ER-α) [µM] | melting point [°C] | IC50 (U2OS ER-Minus cells; [1]) [µM] | IC50 (U2OS ER-Minus cells; Homo sapiens, U2OS) [µM] |
| --- | --- | --- | --- | --- | --- |
| 4-Hydroxy-Tamoxifen | – | – | – | > 1 | – |
| C[C@]12CC[C@@H]3c4ccc(O)cc4CC[C@H]3[C@@H]1CC[C@@H]2O [17-β-Estradiol] | – | – | – | > 1 | – |
| Oc1ccc2c(c1)CCN(c1ccc(F)cc1)C2Cc1ccc(OCCN2CCCCC2)cc1 (stereo not shown) [Example 5] | 0.285 | 2.01 | – | – | > 10 |
| O=C(c1ccc(OCCN2CCCCC2)cc1)c1c(-c2ccc(O)cc2)sc2cc(O)ccc12 [Raloxifene Hydrochloride] | – | – | – | – | > 1 |
